# Test results reported in patent US20080113908A1, “Use of CRF receptor agonists for the treatment or Prophylaxis of diseases, for example Neurodegenerative diseases” (SmithKline Beecham plc, priority 2000, published 2008).
# Where two headings read alike, the source gives them in different places. Ends that are not written are not given here.
# Assays:
# [1] = tested on: primary cerebellar granule neurones; test: Assay 2: effect of CP154,526 on agonist protection against LY294002 neurotoxicity; assay type: cell-based, rat; details: LY 294002 75 μM; for effect of CP 154,526 on neuroprotective effect of CRF receptor agonist (FIGS. 2B-D): urocortin, urotensin 1 or sauvagine 10 nM
# Protocol: Assay 2: This assay measures the effects of CP154,526, a selective CRF receptor-1 antagonist, on the protective effects of a putative CRF receptor agonist against neurotoxicity induced by LY294002 in primary cerebellar granule neurones. The assay is identical to Assay 1 except that after shifting the granule neurone cultures to the medium, the cultures were incubated with CP154,526 at concentrations varying from 3 nM to 1000 nM for 30 minutes prior to simultaneous addition of the putative CRF receptor agonist (10 nM) and LY 294002 (75 μM). 48 hours later neuronal survival was measured as in Assay 1.
# The columns from left to right represent: (1) control: cells cultured with CRF (10 nM) and LY 294002 (75 μM); (2 to 7) cells cultured with CRF (10 nM), LY 294002 (75 μM) and CP 154,526 at concentrations of 3 nM, 10 nM, 30 nM, 100 nM, 300 nM and 1000 nM respectively; and (8) cells cultured without agonist (CRF) but with LY 294002 (75 μM).
# hippocampal neurones = test: Amyloid-β peptide (25-35) toxicity, survival by counting viable neurons (FIGS. 8, 9); assay type: cell-based; details: CP-154,526 1 μM with CRF (30 nM) and Aβ(25-35) 10 μM, 3 days
# Protocol: In order to test whether CRF receptor agonists protect neurones from death caused by Aβ, the following experiment was conducted (FIGS. 8 and 9). Hippocampal neurons from embryonic day 18 rat were cultured in serum-free medium (neurobasal/B27) for 9 days. The culture methods are described on page 48 of S. D. Skaper et al., J. Neurochem., 2001, 76, 47-55. Cells were then treated with amyloid-β peptide (fragment 25-35) (Sigma, cat. no. A-4559, sequence Gly-Ser-Asn-Lys-Gly-Ala-Ile-Ile-Gly-Leu-Met) at 10 μM plus the indicated CRF receptor agonist at the indicated concentration, in the same culture medium. […] Cell survival was assessed after 3 days, by fixing the cultures and counting microscopically viable neurons. Values are expressed relative to numbers of surviving neurons in untreated cultures (=100).
# [2] = tested on: cerebellar granule neurones; assay type: cell-based, rat; details: 48 h, MTT, sham-treated = 100%
# Protocol: Cerebellar granule neurones were used in the examples to test neuroprotection by CRF receptor agonists. Cerebellar granule neurones (CGNs) undergo apoptosis during the first few weeks of postnatal life, and in culture require mildly depolarising concentrations of KCl (25 mM) for their survival and maturation (S. R: D'Mello et al., Proc. Natl. Acad. Sci. USA 90, 10989-10993, 1993). The growth signal provided by KCl depends upon activation of the phosphatidylinositol 3-kinase (PI 3-kinase) pathway, and pharmacological inhibition of PI 3-kinase in differentiated granule neurones leads to apoptotic death in the CGNs (T. M. Miller et al., J. Biol. Chem., 272, 9847-9853, 1997). Thus, cultured CGNs represent a suitable model to study mechanisms of programmed cell death, and to identify putative neuroprotective signalling pathways.
# Assay 1: Cerebellar granule neurones prepared from postnatal day 8 Sprague Dawley rat pups were used for experiments on death induced by inhibition of PI 3-kinase. General culture methods are described in S. D. Skaper et al. in Methods in Neurosciences, Vol. 2 (Conn P. M., ed), pp. 17-33. Academic Press, San Diego, 1990. At 8-9 days in vitro (DIV), granule neurone cultures were shifted to phenol red-free Dulbecco's modified Eagle's medium lacking serum, and containing 0.05% bovine serum albumin and 25 mM KCl. Death was induced by addition of the PI 3-kinase inhibitor LY 294002 (75 μM). CRF or CRF agonist peptides (urotensin 1, urocortin, sauvagine) were added at different concentrations (from 0.3nM to 300 nM or 1000 nM) together with LY 294002. Forty-eight hours later neuronal survival was quantified by a colorimetric reaction MTT. Absolute MTT values obtained were normalised for small differences in interexperiment plating densities by scaling to the mean of sham-treated sister cultures (defined as 100%).
# Results are shown in Table 1 below and in graphical form in FIG. 1, which show the percentage mean neuronal survival (and standard deviation), when in the presence of the relevant CRF receptor agonists and LY 294002, as a function of agonist concentration. […] Urotensin 1, urocortin and sauvagine were also neuroprotective albeit with lower potency (<1 μM).
# [3] = tested on: cerebellar granule neurones; test: Assay 3: intracellular cyclic AMP enzyme immunoassay; assay type: cell-based, rat; details: agonist 0 to 30 nM, 15 min, 0.5 mM IBMX
# Protocol: Assay 3: The production of cAMP by the CRF receptor agonist peptides CRF, urotensin 1, urocortin and sauvagine was measured as follows. This assay can be used analogously for any putative CRF receptor agonists including non-peptide agonists.
# Intracellular cyclic AMP was measured with a cAMP 2-site enzyme immunoassay system (trade mark BIOTRAK, commercially available from Amersham Pharmacia Biotech, PO Box 164, Rainham, Essex RM13 8JZ, United Kingdom, Amersham catalogue number RPN225), based upon the use of a sensitive and highly specific capture antibody for cyclic AMP:
# Cerebellar granule neurones were seeded in polylysine-coated […] plates, 3.5×10^5 cells per 48-well, in Basal medium Eagle's containing 10% fetal calf serum, 25 mM KCl, and antibiotics. At 8-9 days in vitro, granule neurone cultures were shifted to serum-free plating medium (0.4 ml) with 0.5 mM IBMX (to inhibit the breakdown of cyclic AMP) for 15 min (37° C.). Wells then received 0.1 ml of test peptide (5× final concentration). Generally 1 μM is the preferable final concentration for a putative CRF agonist under test, though different (e.g. lower) concentrations can be used as shown for the peptide agonists in FIG. 3. Incubation was continued for 15 min. Test medium was removed and the plate placed on dry ice, and stored at −140° C. Cyclic AMP analysis was performed the following day.
# Cells were then lysed with the reagent provided with the BIOTRAK kit. Intracellular content of cyclic AMP in the lysates was assayed following the manufacturer's instructions. A standard curve was constructed using the cyclic AMP calibration provided, with the quantity of bound cyclic AMP being inversely proportional to the amount of second (chromogenic) antibody bound to the reaction wells. The colour product was read with an ELISA plate reader, and was a function of the amount of cyclic AMP in the unknown sample.
# [4] = target: CRF receptor-1 (Type 1 CRF receptor) on primary rat neurones (rat, UniProt P35353); test: cell-based or functional assay
# [5] = agonist 0.3 nM with LY 294002 75 μM
# [6] = agonist 1 nM with LY 294002 75 μM
# [7] = agonist 3 nM with LY 294002 75 μM
# [8] = agonist 10 nM with LY 294002 75 μM
# [9] = agonist 30 nM with LY 294002 75 μM
# [10] = agonist 100 nM with LY 294002 75 μM
# [11] = agonist 300 nM with LY 294002 75 μM
Molecule,"Mean survival % [2, 5]","Mean survival % [2, 6]","Mean survival % [2, 7]","Mean survival % [2, 8]","Mean survival % [2, 9]","Mean survival % [2, 10]","Mean survival % [2, 11]",cAMP synthesis induced by agonist (FIG. 3) [3],potency of neuroprotection of cerebellar granule neurones against LY 294002 (Assay 1) [4],further results
"CCCCN(CC)c1nc(C)nc2c1c(C)cn2-c1c(C)cc(C)cc1C [CP 154,526]",,,,,,,,,,"effect of CP 154,526 on neuroprotective effect of CRF receptor agonist (FIGS. 2B-D) ([1]; CP 154,526 300 nM): partial reductions in neuroprotection; effect of CP 154,526 on neuroprotective effect of CRF receptor agonist (FIGS. 2B-D) ([1]; CP 154,526 1000 nM): remove most or all of the neuroprotective effect; effect of CP 154,526 on neuroprotective effect of CRF (FIG. 2A) ([1]; CP 154,526 as low as 300 nM, CRF 10 nM): remove almost completely the neuroprotective effect of 10 nM CRF; effect of CP-154,526 on CRF's neuroprotection (FIG. 8) (hippocampal neurones): cancels all of CRF's neuroprotection"
CC[C@H](C)[C@H](NC(=O)[C@@H](NC(=O)[C@H](CC(=O)O)NC(=O)[C@H](CC(C)C)NC(=O)[C@H](CC(C)C)NC(=O)[C@H](CC(C)C)NC(=O)[C@H](CCCNC(=N)N)NC(=O)[C@H](CC(N)=O)NC(=O)[C@H](CC(N)=O)NC(=O)[C@H](C)NC(=O)[C@H](C)NC(=O)[C@H](CCC(N)=O)NC(=O)[C@H](CCC(N)=O)NC(=O)[C@H](CCCCN)NC(=O)[C@H](CCC(=O)O)NC(=O)[C@H](CCCCN)NC(=O)[C@H](CCC(=O)O)NC(=O)[C@H](CCC(N)=O)NC(=O)[C@H](CCCCN)NC(=O)[C@H](CCC(=O)O)NC(=O)[C@@H](NC(=O)[C@H](CCC(=O)O)NC(=O)[C@@H](NC(=O)[C@H](CCSC)NC(=O)[C@H](CCCCN)NC(=O)[C@H](CCCNC(=N)N)NC(=O)[C@H](CC(C)C)NC(=O)[C@H](CC(C)C)NC(=O)[C@H](CCC(=O)O)NC(=O)[C@H](CC(C)C)NC(=O)[C@H](CO)NC(=O)[C@H](CC(C)C)NC(=O)[C@H](CC(=O)O)NC(=O)[C@@H](NC(=O)[C@H](CO)NC(=O)[C@@H](NC(=O)[C@@H]1CCCN1C(=O)[C@@H]1CCCN1C(=O)CNC(=O)[C@@H]1CCC(=O)N1)[C@@H](C)CC)[C@@H](C)CC)[C@@H](C)CC)[C@@H](C)CC)[C@@H](C)O)C(N)=O [Sauvagine],49.33%,66.5%,76.33%,80.67%,78.67%,77.33%,78.33%,cAMP production increased with agonist concentration,,
"DDPPLSIDLTFHLLRTLLELARTQSQRERAEQNRIIFDSV [Urocortin, Urocortin (rat, Sigma Cat. no. U-6631), CRF receptor agonist peptide]",50.67%,61.33%,69.33%,77.33%,80.67%,75%,84%,cAMP production increased with agonist concentration,,
"DDPPLSIDLTFHLLRTLLELARTQSQRERAEQNRIIFDSV-NH2 [Urocortin (rat, Sigma Cat. no. U-6631)]",,,,,,,,,< 1000 nM,
"SQEPPISLDLTFHLLREVLEMTKADQLAQQAHNNRKLLDIA-NH2 [Rat CRF (corticotropin-releasing factor), Sigma catalogue no. C-3042]",,,,,,,,,,EC50 of neuroprotection of cerebellar granule neurones against LY 294002 (Assay 1) [4]: ~10 nM
"NDDPPISIDLTFHLLRNMIEMARIENEREQAGLNRKYLDEV-NH2 [Urotensin 1 (teleost fish, Sigma cat. no. U-7253)]",,,,,,,,,< 1000 nM,
